This passage reports cytotoxicity results from ChEMBL document CHEMBL3507680, “University of Dundee, Gates Library screen for HepG2 cell viability”.

The data set in a line: Human HepG2 cell viability assay in 384 well format. The arrangement: dose 125 nL, time 70.5 hour; cytotoxicity at 70.5 h: concentration not given beside the values. Particulars: HepG2 cells, read-out: Inhibition. Type of data set: toxicity, cell-based.
Consider `COc1ccccc1Nc1nc2c(s1)C(=O)CN(C(=O)CC(C)C)C2`, for which the cytotoxicity at 70.5 h came to 2.87%. `Cc1ccc(C(=O)N2C[C@@H]3COC[C@]3(COc3cccnc3)C2)cn1`: the cytotoxicity at 70.5 h is 12.6%.

Take `Cc1nc(-c2ccsc2)ccc1C(=O)NCCC1CCCO1` (stereo not drawn): the cytotoxicity at 70.5 h came to 28.6%.

For `NC(=O)C1CCC(NC(=O)COc2ccc(Cl)c(Cl)c2)CC1` (stereo not drawn), the cytotoxicity at 70.5 h came to 2.5%. In the case of `CC(C(=O)NC(C)(C)C)N1CCC(C(=O)Nc2cnccn2)CC1` (stereo not drawn) it was -8.75%. In the case of `Cc1nc(C)n(CC2CCCN2CC(=O)NCCC2=CCCCC2)n1` (stereo not drawn) it was -9.96%; in that of `CCN1CCN(c2ncnc3c2CCN(C(=O)C2CC2)C3)CC1`, 26.2%; in that of `CC(CNC(=O)c1cccc(C#N)c1)N1CCc2ccccc21` (stereo not drawn), -11.4%. In the case of `CC1c2ncc(CN3CCN(C)CC3)n2CCN1Cc1ccc(F)cc1` (stereo not drawn) it was -2.82%; in that of `O=C(O)c1cc(-n2cc3c(n2)CCC3)cc(S(=O)(=O)N2CCOCC2)c1`, 3.53%.

With `Cc1nn(Cn2ccc(C(=O)N3CCCCCC3)n2)c(C)c1Cl`, the cytotoxicity at 70.5 h is -11.3%. In the case of `Cc1cc(NC(C)c2csc(C)n2)n2nc(C)c(C)c2n1` (stereo not drawn) it was 5.97%; in that of `Cc1nc2ccccc2c(=O)n1CCCC(=O)N1CCNC(=O)CC1`, 2.21%. As to `CC(C)C(=O)N1CCC(c2nc3c([nH]2)CCCNC3=O)CC1`, the cytotoxicity at 70.5 h was -6.35%. As to `CC1=NC2(CCN(CC(C)c3ccccc3)CC2)C(=O)N1` (stereo not drawn), the cytotoxicity at 70.5 h was -8.98%. As to `Cc1cc(C)n(CCNC(=O)c2ncc[nH]2)c(=O)n1`, the cytotoxicity at 70.5 h was -3.22%.

With `Cc1ccccc1CNC(=O)N1CC[C@@H]2CN(C)S(=O)(=O)[C@@H]2CC1`, the cytotoxicity at 70.5 h stood at 17.8%. In the case of `COc1ccc(OC)c(C(O)CN2CCN(C3CCCC3)CC2)c1` (stereo not drawn) it was -7.66%; in that of `CCN(C(=O)C1Cc2cc(Cl)ccc2O1)C1CC1` (stereo not drawn), -2.35%; in that of `Cc1ccc([C@@H]2CN(C(=O)c3cc[nH]c3)C[C@H]2NC(=O)C2CC2)cc1`, -10.7%. The result for `CC(C)c1nc(CN(C)C2CCN(Cc3nc(C4CC4)no3)C2)no1` (stereo not drawn) reads 12%; that for `COc1ccc(OC(F)F)c(NCC(=O)NCC(=O)N2CCCC2)c1`, -7.93%; that for `Cc1c(NCc2ccccc2C#N)cccc1S(=O)(=O)NC1CC1`, 5.79%. For `CCc1nc(CN(C)C2CCN(Cc3ccc(Cl)s3)C2)no1` (stereo not drawn), the cytotoxicity at 70.5 h stood at 8.41%.

For `COC(=O)C1CCN(C(=O)Cn2ccc(-c3ccc(F)cc3)n2)CC1`, the cytotoxicity at 70.5 h was -8.67%. Regarding `CNS(=O)(=O)c1cccc(CNCc2ccsc2)c1`, the cytotoxicity at 70.5 h was -1.74%. In the case of `Cc1ccc(C(=O)NCCN2CCOCC2)c(=O)[nH]1` it was -11.5%. Consider `CCOC(=O)c1ccc(CNC(=O)c2ccc(Cl)cn2)o1`, for which the cytotoxicity at 70.5 h is -6.63%. The result for `CCc1nnc2ccc(N3CCN(S(=O)(=O)c4ccc(C)s4)CC3)nn12` reads -21.3%; that for `Cc1cc(CN(C)C(=O)C(c2cccnc2)N2CCOCC2)n[nH]1` (stereo not drawn), -10.1%; that for `Cc1nc(Nc2nnc(C)s2)cc(C2CCCN2S(C)(=O)=O)n1` (stereo not drawn), -1.79%. In the case of `Cc1nccn1-c1cc(CNC(=O)N2CCSCC2)ccn1` it was -3.48%; in that of `N#Cc1c(CN2CCCC2Cn2cncn2)cn2ccccc12` (stereo not drawn), -12.3%; in that of `Cc1cc(CN2CCN(C(=O)C(C)C)[C@@H]3CS(=O)(=O)C[C@@H]32)ccc1F`, -2.32%. Regarding `CCOCC(=O)NCC(Cc1cccc(F)c1)N1CCCCC1=O` (stereo not drawn), the cytotoxicity at 70.5 h turned out to be 30%. In the case of `CC1CN(C)CCN1C(=O)c1cnc2c(cnn2C2CCCC2)c1` (stereo not drawn), the cytotoxicity at 70.5 h is -2.54%. The result for `Cc1c(C(=O)N2CCCN(S(C)(=O)=O)CC2)cnn1C` reads -3.33%. The result for `COc1ccc2c(c1)C1(CCN(Cc3ccccn3)CC1)N(C)CC2` reads 0.00866%.
